# Source: US20240350643A1, “PROTEIN DEGRADATION AGENT” (SUZHOU KINTOR PHARMACEUTICALS, INC., priority 2021, published 2024)
# Tests used:
# c-Myc protein = molecular target: T1, c-Myc protein (Homo sapiens, UniProt P01106); test: Ability of compounds to degrade c-Myc protein in HL60 cells (ELISA); format: cell-based; conditions: HL-60, 1 μM compound, 24 h, read-out: HL60 cells Protein degradation rate (1 μM)
# T1 construct: endogenous in cells; host or cells: HL60 cells
# HL60 cells = test: Anti-proliferation ability of compounds on HL60 cells (CTG); format: cell-based, human; conditions: Homo sapiens, HL-60, 72 h, 3 days, CellTiter-Glo, read-out: HL60 cells Proliferation inhibitory activity
# Summary of the method: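 Proliferation inhibition IC50 derived from CellTiter-Glo luminescence after 3-day compound treatment of HL60 cells plated at 20000 per well, against 0.1% DMSO controls.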
# T1 sequence (P01106 whole entry): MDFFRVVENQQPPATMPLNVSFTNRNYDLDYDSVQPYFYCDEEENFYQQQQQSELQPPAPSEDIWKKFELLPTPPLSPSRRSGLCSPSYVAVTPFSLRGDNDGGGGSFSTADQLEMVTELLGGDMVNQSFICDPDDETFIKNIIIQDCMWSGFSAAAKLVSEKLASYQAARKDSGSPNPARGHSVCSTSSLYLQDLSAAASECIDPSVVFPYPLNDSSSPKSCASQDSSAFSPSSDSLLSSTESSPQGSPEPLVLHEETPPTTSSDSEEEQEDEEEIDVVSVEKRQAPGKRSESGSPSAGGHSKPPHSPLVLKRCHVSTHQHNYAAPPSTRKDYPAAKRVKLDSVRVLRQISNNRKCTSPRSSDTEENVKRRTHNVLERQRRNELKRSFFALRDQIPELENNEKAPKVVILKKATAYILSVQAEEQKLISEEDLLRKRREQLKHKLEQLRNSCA
SMILES,inhibition at 1 µM (c-Myc protein) [%],IC50 (HL60 cells) [nM]
O=C(CCc1ccccc1Cl)NCc1ccc(CNC(=O)c2ccc3c(c2)C(=O)N(C2CCC(=O)NC2=O)C3=O)cc1 (stereo not shown) [A62],60 to 90,320 ± 17.6
COc1ccccc1CCC(=O)NCc1ccc(CNC(=O)c2ccc3c(c2)C(=O)N(C2CCC(=O)NC2=O)C3=O)cc1 (stereo not shown) [A63],60 to 90,702 ± 33.8
O=C(Cc1cccc(F)c1)NCc1ccc(CNC(=O)c2ccc3c(c2)C(=O)N(C2CCC(=O)NC2=O)C3=O)cc1 (stereo not shown) [A64],60 to 90,2020
O=C(Cc1ccccc1Br)NCc1ccc(CNC(=O)c2ccc3c(c2)C(=O)N(C2CCC(=O)NC2=O)C3=O)cc1 (stereo not shown) [A65],60 to 90,473 ± 93.3
N#Cc1ccccc1CC(=O)NCc1ccc(CNC(=O)c2ccc3c(c2)C(=O)N(C2CCC(=O)NC2=O)C3=O)cc1 (stereo not shown) [A66],60 to 90,1850 ± 1230
O=C(Cc1ccccc1C(F)(F)F)NCc1ccc(CNC(=O)c2ccc3c(c2)C(=O)N(C2CCC(=O)NC2=O)C3=O)cc1 (stereo not shown) [A67],60 to 90,1070 ± 617
Cc1ccccc1CC(=O)NCc1ccc(CNC(=O)c2ccc3c(c2)C(=O)N(C2CCC(=O)NC2=O)C3=O)cc1 (stereo not shown) [A68],60 to 90,1000 ± 480
CC(C)(C(=O)NCc1ccc(CNC(=O)c2ccc3c(c2)C(=O)N(C2CCC(=O)NC2=O)C3=O)cc1)c1ccccc1 (stereo not shown) [A69],60 to 90,710 ± 40.1
O=C1CCC(N2C(=O)c3ccc(C(=O)NCc4ccc(CNC(=O)C5(c6ccccc6Br)CC5)cc4)cc3C2=O)C(=O)N1 (stereo not shown) [A70],60 to 90,374 ± 51.1
CN(Cc1ccc(CNC(=O)c2ccc3c(c2)C(=O)N(C2CCC(=O)NC2=O)C3=O)cc1)C(=O)Cc1cccc2ccccc12 (stereo not shown) [A71],60 to 90,24.3 ± 8.5
CN(Cc1ccc(CNC(=O)c2ccc3c(c2)C(=O)N(C2CCC(=O)NC2=O)C3=O)cc1)C(=O)Cn1c2ccccc2c2cccnc21 (stereo not shown) [A72],60 to 90,45.6 ± 3
O=C1CCC(N2C(=O)c3ccc(C(=O)NCc4ccc(CNCCc5cccc6ccccc56)cc4)cc3C2=O)C(=O)N1 (stereo not shown) [A73],60 to 90,59.3 ± 5.7
O=C1CCC(N2C(=O)c3ccc(C(=O)NCc4ccc(CNCCn5c6ccccc6c6cccnc65)cc4)cc3C2=O)C(=O)N1 (stereo not shown) [A74],60 to 90,5.5 ± 2.3
O=C1CCC(N2C(=O)c3ccc(C(=O)NCc4ccc(COCCc5cccc6ccccc56)cc4)cc3C2=O)C(=O)N1 (stereo not shown) [A75],60 to 90,2730 ± 614
O=C1CCC(N2C(=O)c3ccc(C(=O)NCc4ccc(COCCn5c6ccccc6c6cccnc65)cc4)cc3C2=O)C(=O)N1 (stereo not shown) [A76],60 to 90,432 ± 138
CS(=O)(=O)N(CCc1cccc2ccccc12)Cc1ccc(CNC(=O)c2ccc3c(c2)C(=O)N(C2CCC(=O)NC2=O)C3=O)cc1 (stereo not shown) [A77],60 to 90,73.4
CS(=O)(=O)N(CCn1c2ccccc2c2cccnc21)Cc1ccc(CNC(=O)c2ccc3c(c2)C(=O)N(C2CCC(=O)NC2=O)C3=O)cc1 (stereo not shown) [A78],60 to 90,4.6
CC(=O)N(CCc1cccc2ccccc12)Cc1ccc(CNC(=O)c2ccc3c(c2)C(=O)N(C2CCC(=O)NC2=O)C3=O)cc1 (stereo not shown) [A79],60 to 90,21.7
CC(C)C(=O)N(CCc1cccc2ccccc12)Cc1ccc(CNC(=O)c2ccc3c(c2)C(=O)N(C2CCC(=O)NC2=O)C3=O)cc1 (stereo not shown) [A80],60 to 90,< 3
O=C1CCC(N2C(=O)c3ccc(C(=O)NCc4ccc(CN(CCc5cccc6ccccc56)C(=O)C5CC5)cc4)cc3C2=O)C(=O)N1 (stereo not shown) [A81],60 to 90,< 3
CC(=O)N(CCn1c2ccccc2c2cccnc21)Cc1ccc(CNC(=O)c2ccc3c(c2)C(=O)N(C2CCC(=O)NC2=O)C3=O)cc1 (stereo not shown) [A82],60 to 90,< 3
CN(CCc1cccc2ccccc12)Cc1ccc(CNC(=O)c2ccc3c(c2)C(=O)N(C2CCC(=O)NC2=O)C3=O)cc1 (stereo not shown) [A83],30 to 60,27.2 ± 7.6
CN(CCn1c2ccccc2c2cccnc21)Cc1ccc(CNC(=O)c2ccc3c(c2)C(=O)N(C2CCC(=O)NC2=O)C3=O)cc1 (stereo not shown) [A84],60 to 90,13.1 ± 6.2
CC(C)N(CCc1cccc2ccccc12)Cc1ccc(CNC(=O)c2ccc3c(c2)C(=O)N(C2CCC(=O)NC2=O)C3=O)cc1 (stereo not shown) [A85],60 to 90,21.3 ± 10.9

SMILES,inhibition at 1 µM (c-Myc protein) [%],IC50 (HL60 cells) [nM]
CC(C)N(CCn1c2ccccc2c2cccnc21)Cc1ccc(CNC(=O)c2ccc3c(c2)C(=O)N(C2CCC(=O)NC2=O)C3=O)cc1 (stereo not shown) [A86],60 to 90,24.4 ± 10.4
CC(C)N(CCc1cccc(Cl)c1Cl)Cc1ccc(CNC(=O)c2ccc3c(c2)C(=O)N(C2CCC(=O)NC2=O)C3=O)cc1 (stereo not shown) [A87],60 to 90,11.5
O=C1CCC(N2C(=O)c3ccc(C(=O)NCc4ccc(CN(CCc5cccc6ccccc56)C5CC5)cc4)cc3C2=O)C(=O)N1 (stereo not shown) [A88],60 to 90,83.1
O=C1CCC(N2C(=O)c3ccc(C(=O)NCc4ccc(CN(CCn5c6ccccc6c6cccnc65)C5CC5)cc4)cc3C2=O)C(=O)N1 (stereo not shown) [A89],60 to 90,81.1 ± 36.9
COCCN(CCc1cccc2ccccc12)Cc1ccc(CNC(=O)c2ccc3c(c2)C(=O)N(C2CCC(=O)NC2=O)C3=O)cc1 (stereo not shown) [A90],60 to 90,< 3
COCCN(CCn1c2ccccc2c2cccnc21)Cc1ccc(CNC(=O)c2ccc3c(c2)C(=O)N(C2CCC(=O)NC2=O)C3=O)cc1 (stereo not shown) [A91],60 to 90,12 ± 4.4
N#CCCN(CCc1cccc2ccccc12)Cc1ccc(CNC(=O)c2ccc3c(c2)C(=O)N(C2CCC(=O)NC2=O)C3=O)cc1 (stereo not shown) [A92],60 to 90,440 ± 120
N#CCCN(CCn1c2ccccc2c2cccnc21)Cc1ccc(CNC(=O)c2ccc3c(c2)C(=O)N(C2CCC(=O)NC2=O)C3=O)cc1 (stereo not shown) [A93],60 to 90,171 ± 60.4
O=C1CCC(N2C(=O)c3ccc(C(=O)NCc4ccc(CN(CCc5cccc6ccccc56)c5ccccc5)cc4)cc3C2=O)C(=O)N1 (stereo not shown) [A94],60 to 90,289 ± 48.3
O=C1CCC(N2C(=O)c3ccc(C(=O)NCc4ccc(CN(CCn5c6ccccc6c6cccnc65)c5ccccc5)cc4)cc3C2=O)C(=O)N1 (stereo not shown) [A95],60 to 90,43.6 ± 44
O=C1CCC(N2C(=O)c3ccc(C(=O)NCc4ccc(CN(CCc5cccc6ccccc56)Cc5ccccc5)cc4)cc3C2=O)C(=O)N1 (stereo not shown) [A96],60 to 90,960 ± 121
O=C1CCC(N2C(=O)c3ccc(C(=O)NCc4ccc(CN(CCn5c6ccccc6c6cccnc65)Cc5ccccc5)cc4)cc3C2=O)C(=O)N1 (stereo not shown) [A97],60 to 90,169 ± 50.7
CN(CCc1nccc2ccccc12)Cc1ccc(CNC(=O)c2ccc3c(c2)C(=O)N(C2CCC(=O)NC2=O)C3=O)cc1 (stereo not shown) [A98],60 to 90,11.2 ± 1.3
CN(CCc1cccc(Cl)c1Cl)Cc1ccc(CNC(=O)c2ccc3c(c2)C(=O)N(C2CCC(=O)NC2=O)C3=O)cc1 (stereo not shown) [A99],60 to 90,19.8 ± 4.8
CN(CCc1ccc(Cl)cc1Cl)Cc1ccc(CNC(=O)c2ccc3c(c2)C(=O)N(C2CCC(=O)NC2=O)C3=O)cc1 (stereo not shown) [A100],60 to 90,0.9
CN(CCc1ccc(Cl)c(Cl)c1)Cc1ccc(CNC(=O)c2ccc3c(c2)C(=O)N(C2CCC(=O)NC2=O)C3=O)cc1 (stereo not shown) [A101],60 to 90,0.4
O=C(Cc1cccc2ccccc12)NCc1ccc(CNC(=O)c2ccc3c(c2)C(=O)N(C2CCC(=O)NC2=O)C3=O)c(F)c1 (stereo not shown) [A103],60 to 90,5.8 ± 2.5
O=C(Cn1c2ccccc2c2cccnc21)NCc1ccc(CNC(=O)c2ccc3c(c2)C(=O)N(C2CCC(=O)NC2=O)C3=O)c(F)c1 (stereo not shown) [A104],60 to 90,2.5 ± 0.7
CN(CCc1cccc2ccccc12)Cc1ccc(CNC(=O)c2ccc3c(c2)C(=O)N(C2CCC(=O)NC2=O)C3=O)c(F)c1 (stereo not shown) [A105],60 to 90,8.3 ± 1.9
CN(CCn1c2ccccc2c2cccnc21)Cc1ccc(CNC(=O)c2ccc3c(c2)C(=O)N(C2CCC(=O)NC2=O)C3=O)c(F)c1 (stereo not shown) [A106],60 to 90,4.2
O=C(Cc1cccc2ccccc12)NCc1ccc(CNC(=O)c2ccc3c(c2)C(=O)N(C2CCC(=O)NC2=O)C3=O)cc1F (stereo not shown) [A107],60 to 90,3.4
O=C(Cn1c2ccccc2c2cccnc21)NCc1ccc(CNC(=O)c2ccc3c(c2)C(=O)N(C2CCC(=O)NC2=O)C3=O)cc1F (stereo not shown) [A108],60 to 90,2.7 ± 1.8
CN(CCc1cccc2ccccc12)Cc1ccc(CNC(=O)c2ccc3c(c2)C(=O)N(C2CCC(=O)NC2=O)C3=O)cc1F (stereo not shown) [A109],60 to 90,5.5 ± 4.2
